From US20140179664A1, “Heterocyclyl Pyrimidine Analogues As JAK Inhibitors” (Cellzome Limited, priority 2011, published 2014)

Key:
Type in all cases: binding
JAK3 = target: T1, JAK3 (Homo sapiens, UniProt P52333); experiment: Kinobeads assay, JAK3; conditions: mixed Molt4/Ramos lysate, read-out: Inhibition values (IC50) JAK3
T1 construct: endogenous in cells; host or cells: Molt4 (ATCC CRL-1582) and Ramos (ATCC CRL-1596), mixed lysate 1:2
T1 sequence (P52333 1-1124): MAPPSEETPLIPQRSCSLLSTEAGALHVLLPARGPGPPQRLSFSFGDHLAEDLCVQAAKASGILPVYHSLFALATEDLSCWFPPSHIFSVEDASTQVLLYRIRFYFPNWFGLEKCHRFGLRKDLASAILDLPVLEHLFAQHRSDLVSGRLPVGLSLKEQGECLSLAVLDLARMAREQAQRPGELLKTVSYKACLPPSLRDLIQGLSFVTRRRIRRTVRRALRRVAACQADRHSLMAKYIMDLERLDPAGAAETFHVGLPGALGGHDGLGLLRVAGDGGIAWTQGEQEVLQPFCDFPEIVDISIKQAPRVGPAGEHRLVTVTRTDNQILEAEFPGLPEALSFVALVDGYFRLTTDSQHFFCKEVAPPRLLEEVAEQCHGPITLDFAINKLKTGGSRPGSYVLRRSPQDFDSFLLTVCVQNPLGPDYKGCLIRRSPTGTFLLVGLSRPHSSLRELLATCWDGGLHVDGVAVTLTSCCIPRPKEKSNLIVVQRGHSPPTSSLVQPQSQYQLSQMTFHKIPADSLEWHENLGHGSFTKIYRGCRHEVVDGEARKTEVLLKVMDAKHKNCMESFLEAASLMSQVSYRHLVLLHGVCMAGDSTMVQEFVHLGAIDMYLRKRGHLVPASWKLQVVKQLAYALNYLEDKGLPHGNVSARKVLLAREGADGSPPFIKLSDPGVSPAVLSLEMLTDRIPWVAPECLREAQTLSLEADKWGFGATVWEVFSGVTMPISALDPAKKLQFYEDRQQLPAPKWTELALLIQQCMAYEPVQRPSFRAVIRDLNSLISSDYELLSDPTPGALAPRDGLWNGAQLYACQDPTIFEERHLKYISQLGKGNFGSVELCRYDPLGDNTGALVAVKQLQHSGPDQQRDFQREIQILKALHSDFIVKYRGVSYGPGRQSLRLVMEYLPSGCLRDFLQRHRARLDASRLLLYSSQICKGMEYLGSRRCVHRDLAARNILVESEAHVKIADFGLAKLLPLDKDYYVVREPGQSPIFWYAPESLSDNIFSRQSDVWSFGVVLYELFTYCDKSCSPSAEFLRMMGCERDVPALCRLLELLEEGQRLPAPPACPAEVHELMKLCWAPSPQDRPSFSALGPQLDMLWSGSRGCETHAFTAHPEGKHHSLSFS
How it was run: (§1)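 IC50s come from capture competition: compound at various concentrations versus an immobilized aminopyrido-pyrimidine ligand for kinases in 1:2 Molt4/Ramos lysate (10 mg/mL), 3 h in a cold room. Captured JAK-family kinases were measured by specific-antibody dot blot with Odyssey infrared detection.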

TYK2 = target: T2, TYK2 (Homo sapiens, UniProt P29597); experiment: Kinobeads assay, TYK2; conditions: mixed Molt4/Ramos lysate, read-out: Inhibition values (IC50) TYK2
T2 construct: endogenous in cells; host or cells: Molt4 (ATCC CRL-1582) and Ramos (ATCC CRL-1596), mixed lysate 1:2
How it was run: as §1

JAK2 = target: T3, JAK2 (Homo sapiens, UniProt O60674); experiment: Kinobeads assay, JAK2; conditions: mixed Molt4/Ramos lysate, read-out: Inhibition values (IC50) JAK2
T3 construct: endogenous in cells; host or cells: Molt4 (ATCC CRL-1582) and Ramos (ATCC CRL-1596), mixed lysate 1:2
How it was run: as §1

T2 sequence (P29597 whole entry): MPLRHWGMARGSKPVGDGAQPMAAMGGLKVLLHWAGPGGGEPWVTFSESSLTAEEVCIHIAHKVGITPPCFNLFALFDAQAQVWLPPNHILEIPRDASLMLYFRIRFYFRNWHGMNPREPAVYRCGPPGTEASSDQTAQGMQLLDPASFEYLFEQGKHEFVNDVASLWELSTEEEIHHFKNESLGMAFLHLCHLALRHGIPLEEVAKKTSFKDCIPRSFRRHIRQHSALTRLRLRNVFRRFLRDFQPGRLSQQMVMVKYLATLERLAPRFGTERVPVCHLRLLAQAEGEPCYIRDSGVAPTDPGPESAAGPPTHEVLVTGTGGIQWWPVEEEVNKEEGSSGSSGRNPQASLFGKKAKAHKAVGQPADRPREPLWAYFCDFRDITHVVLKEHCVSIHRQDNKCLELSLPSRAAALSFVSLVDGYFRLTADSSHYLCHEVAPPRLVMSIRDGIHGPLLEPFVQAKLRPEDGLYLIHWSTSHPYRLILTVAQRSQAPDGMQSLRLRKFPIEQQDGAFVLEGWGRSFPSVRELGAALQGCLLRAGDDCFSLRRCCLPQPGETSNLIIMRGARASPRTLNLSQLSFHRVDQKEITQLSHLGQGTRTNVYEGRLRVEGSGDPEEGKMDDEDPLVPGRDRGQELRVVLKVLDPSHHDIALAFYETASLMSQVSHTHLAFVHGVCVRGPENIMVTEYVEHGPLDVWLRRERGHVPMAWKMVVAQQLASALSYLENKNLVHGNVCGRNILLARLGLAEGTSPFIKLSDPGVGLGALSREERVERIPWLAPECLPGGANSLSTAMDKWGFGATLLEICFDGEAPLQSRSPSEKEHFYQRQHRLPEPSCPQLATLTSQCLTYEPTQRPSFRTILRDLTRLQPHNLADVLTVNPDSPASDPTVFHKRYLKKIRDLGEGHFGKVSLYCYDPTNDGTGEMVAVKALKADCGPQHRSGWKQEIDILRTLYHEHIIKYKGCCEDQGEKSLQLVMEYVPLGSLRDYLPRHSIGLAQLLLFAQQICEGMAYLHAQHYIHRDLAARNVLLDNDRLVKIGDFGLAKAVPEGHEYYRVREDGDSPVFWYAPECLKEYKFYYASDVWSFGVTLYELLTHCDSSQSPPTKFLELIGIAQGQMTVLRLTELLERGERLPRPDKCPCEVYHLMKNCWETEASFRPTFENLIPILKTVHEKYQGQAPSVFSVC
T3 sequence (O60674 whole entry): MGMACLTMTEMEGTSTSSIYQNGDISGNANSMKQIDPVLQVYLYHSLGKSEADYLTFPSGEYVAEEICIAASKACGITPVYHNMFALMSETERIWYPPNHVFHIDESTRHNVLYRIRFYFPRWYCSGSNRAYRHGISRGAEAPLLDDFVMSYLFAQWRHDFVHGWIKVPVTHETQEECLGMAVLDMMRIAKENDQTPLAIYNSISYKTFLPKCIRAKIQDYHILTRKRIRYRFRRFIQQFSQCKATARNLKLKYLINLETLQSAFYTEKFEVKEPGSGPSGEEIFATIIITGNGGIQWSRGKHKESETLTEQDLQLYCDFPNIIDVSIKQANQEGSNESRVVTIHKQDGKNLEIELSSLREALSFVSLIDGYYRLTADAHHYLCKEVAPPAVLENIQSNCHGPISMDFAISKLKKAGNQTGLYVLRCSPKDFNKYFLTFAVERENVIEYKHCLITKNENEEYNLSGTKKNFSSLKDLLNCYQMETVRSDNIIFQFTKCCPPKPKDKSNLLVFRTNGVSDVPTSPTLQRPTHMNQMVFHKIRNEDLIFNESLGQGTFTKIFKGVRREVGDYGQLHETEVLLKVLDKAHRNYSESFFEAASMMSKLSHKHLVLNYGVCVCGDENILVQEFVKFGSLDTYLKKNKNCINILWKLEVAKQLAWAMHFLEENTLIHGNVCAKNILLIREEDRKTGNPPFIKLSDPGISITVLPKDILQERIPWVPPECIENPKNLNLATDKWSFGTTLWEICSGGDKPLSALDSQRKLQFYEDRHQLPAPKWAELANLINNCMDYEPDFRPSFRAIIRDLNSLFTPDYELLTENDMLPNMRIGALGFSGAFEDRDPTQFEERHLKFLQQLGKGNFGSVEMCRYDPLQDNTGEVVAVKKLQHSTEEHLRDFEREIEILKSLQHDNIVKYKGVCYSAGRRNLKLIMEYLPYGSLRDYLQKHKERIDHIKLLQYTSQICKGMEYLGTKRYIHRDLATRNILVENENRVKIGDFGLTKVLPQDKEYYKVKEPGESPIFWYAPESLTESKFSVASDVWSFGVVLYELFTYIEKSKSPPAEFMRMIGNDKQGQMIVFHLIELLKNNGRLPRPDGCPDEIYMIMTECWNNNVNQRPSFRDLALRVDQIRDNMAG

Row | IC50 (JAK3) | IC50 (TYK2) | IC50 (JAK2) | SMILES
1 | < 100 nM | 100 to 1000 nM | 1000 to 10000 nM | CN(C)CCNC(=O)Cn1cc(Nc2ncc(Cl)c(N[C@H](CO)c3ccccc3)n2)cn1 [Compound 89]
2 | 100 to 1000 nM | 100 to 1000 nM | 1000 to 10000 nM | OCCn1cc(Nc2ncc(Cl)c(NC(CO)c3cccc(Br)c3)n2)cn1 (stereo not drawn) [Compound 93]
3 | < 100 nM | 100 to 1000 nM | 1000 to 10000 nM | CN(C)CCCNC(=O)Cn1cc(Nc2ncc(Cl)c(N[C@H](CO)c3ccccc3)n2)cn1 [Compound 90]
4 | < 100 nM | 100 to 1000 nM | 1000 to 10000 nM | Cn1cc(Nc2ncc(Cl)c(N[C@H](CO)c3cccnc3)n2)cn1 [Compound 91]
5 | < 100 nM | 100 to 1000 nM | 100 to 1000 nM | OCCn1cc(Nc2ncc(Cl)c(N[C@H](CO)c3cccc(F)c3)n2)cn1 [Compound 86]

More lines, now with the values behind:

Row | SMILES | IC50 (JAK3) | IC50 (TYK2) | IC50 (JAK2)
6 | OCCn1cc(Nc2ncc(Cl)c(N[C@H](CO)c3cccnc3)n2)cn1 [Compound 92] | < 100 nM | 100 to 1000 nM | 1000 to 10000 nM
7 | NC(=O)Cn1cc(Nc2ncc(Cl)c(N[C@H](CO)c3cccc(F)c3)n2)cn1 [Compound 87] | < 100 nM | 100 to 1000 nM | 100 to 1000 nM
8 | OC[C@@H](Nc1nc(Nc2cn[nH]c2)ncc1Cl)c1cccc(F)c1 [Compound 88] | < 100 nM | 100 to 1000 nM | 100 to 1000 nM
9 | Cn1cc(Nc2ncc(F)c(N[C@H](CO)c3ccccc3)n2)cn1 [Compound 3] | 100 to 1000 nM | 1000 to 10000 nM | ≥ 10000 nM
10 | Cn1cc(Nc2ncc(Cl)c(N[C@H](CO)c3cccc(F)c3)n2)cn1 [Compound 85] | < 100 nM | 100 to 1000 nM | 100 to 1000 nM
